Source: patent US8426447B2, “Spiro-tricyclic ring compounds as beta-secretase modulators and methods of use” (Amgen Inc., priority 2008, dated 2013)

What was measured:
BACE1 [1] = molecular target: T1, BACE1 (Homo sapiens, UniProt P56817); test: In Vitro BACE Cell-based Assay (HEK cell assay): Aβ40 in conditioned medium of cells stably expressing Amyloid Precursor Protein, sandwich ELISA; settings: Table IV, class symbols; read-out: HEK cell assay
Outline: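 Conditioned medium Aβ40 by ELISA: pAb40 capture 3 h 4° C., biotin-6E10 detection 2 h 4° C., Streptavidin-Europium TRF. IC50 fitted from % control.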

BACE1 [2] = molecular target: T1, BACE1; test: In Vitro Enzymatic BACE FRET (Fluorescence Resonance Energy Transfer) Assay; assay type: biochemical; settings: Table IV, class symbols; read-out: BACE1 FRET assay
Outline: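 Buffer: 0.05 M acetate, pH 4.2, 10% DMSO final, 100 uM genapol. Start: FRET substrate 50 nM. Incubation 1 h. Stop: Tris to neutral pH. Read: fluorescence.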

T1 sequence (P56817 46-501, species assumed): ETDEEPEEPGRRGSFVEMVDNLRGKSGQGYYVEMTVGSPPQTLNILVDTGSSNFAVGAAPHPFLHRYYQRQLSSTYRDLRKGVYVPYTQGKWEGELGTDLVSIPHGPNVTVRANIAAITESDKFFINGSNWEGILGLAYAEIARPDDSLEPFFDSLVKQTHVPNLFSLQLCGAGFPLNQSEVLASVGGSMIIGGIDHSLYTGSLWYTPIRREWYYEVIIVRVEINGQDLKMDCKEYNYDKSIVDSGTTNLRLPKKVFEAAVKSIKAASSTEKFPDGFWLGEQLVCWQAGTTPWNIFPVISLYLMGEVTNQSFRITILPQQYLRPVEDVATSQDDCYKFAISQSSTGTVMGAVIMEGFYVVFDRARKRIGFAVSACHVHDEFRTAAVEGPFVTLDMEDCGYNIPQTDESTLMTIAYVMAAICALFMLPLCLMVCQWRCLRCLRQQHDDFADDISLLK

IC50 (BACE1 [1]) | IC50 (BACE1 [2]) | SMILES
100 to 1000 nM | 100 to 1000 nM | Cc1cnc(F)c(-c2ccc3c(c2)[C@@]2(COC(N)=N2)c2cccnc2O3)c1 [compound 571]
1000 to 5000 nM | > 5000 nM | NC1=N[C@@]2(CO1)c1cc(-c3ccc4nccn4c3)ccc1Oc1ncccc12 [compound 572]
100 to 1000 nM | < 100 nM | NC1=N[C@]2(CO1)c1cc(-c3cccnc3F)ccc1Oc1c(F)cccc12 [compound 574]
< 100 nM | < 100 nM | COC(C)(C)C#Cc1ccc2c(c1)[C@@]1(COC(N)=N1)c1cc(-c3ccc(C)cc3)cnc1O2 [compound 577]
< 100 nM | < 100 nM | Cc1ccc(-c2cnc3c(c2)[C@]2(COC(N)=N2)c2cc(-c4cncnc4)ccc2O3)cc1 [compound 578]
< 100 nM | < 100 nM | Cc1ccc(-c2cnc3c(c2)[C@]2(COC(N)=N2)c2cc(C#CC(C)(C)O)ccc2O3)cc1 [compound 579]
< 100 nM | < 100 nM | NC1=N[C@@]2(CO1)c1cc(-c3ccccc3)ccc1Oc1ncc(C3=CCOCC3)cc12 [compound 580]
< 100 nM | < 100 nM | COc1cc(F)c2c(c1)[C@]1(COC(N)=N1)c1cc(-c3cncnc3)ccc1O2 [compound 581]
> 5000 nM | 1000 to 5000 nM | COc1cc(F)c2c(c1)[C@@]1(COC(N)=N1)c1cc(-c3cncnc3)ccc1O2 [compound 582]
< 100 nM | < 100 nM | NC1=N[C@@]2(CO1)c1cc(-c3ccc(F)cc3)ccc1Oc1ncc(C3=CCOCC3)cc12 [compound 583]
> 5000 nM | 1000 to 5000 nM | COc1cc(F)c2c(c1)[C@]1(COC(N)=N1)c1cc(-c3cncnc3)cnc1O2 [compound 584]
> 5000 nM | > 5000 nM | COc1cc(F)c2c(c1)[C@@]1(COC(N)=N1)c1cc(-c3cncnc3)cnc1O2 [compound 585]
1000 to 5000 nM | 1000 to 5000 nM | NC1=N[C@@]2(CO1)c1ccccc1Oc1ccc(-c3cc4ccccc4o3)cc12 [compound 587]
1000 to 5000 nM | 100 to 1000 nM | COc1ccc2c(c1)[C@]1(COC(N)=N1)c1cc(-c3cccc4cnccc34)ccc1O2 [compound 588]
1000 to 5000 nM | 1000 to 5000 nM | COc1ccc2c(c1)[C@]1(COC(N)=N1)c1cc(-c3ccnc4ccccc34)ccc1O2 [compound 589]
1000 to 5000 nM | 1000 to 5000 nM | COc1ccc2c(c1)[C@]1(COC(N)=N1)c1cc(-c3cccc4cccnc34)ccc1O2 [compound 590]
1000 to 5000 nM | 1000 to 5000 nM | COc1ccc2c(c1)[C@]1(COC(N)=N1)c1cc(-c3cccc4ncccc34)ccc1O2 [compound 591]
100 to 1000 nM | < 100 nM | NC1=N[C@@]2(CO1)c1cc(-c3cccnc3)ccc1Oc1c(F)cccc12 [compound 592]
> 5000 nM | > 5000 nM | NC1=N[C@@]2(CO1)c1cc(-c3cccnc3)ccc1Oc1ncccc12 [compound 594]
1000 to 5000 nM | 100 to 1000 nM | NC1=N[C@]2(CO1)c1cc(-c3cccc(OC(F)(F)F)c3)ccc1Oc1ncccc12 [compound 595]
1000 to 5000 nM | 100 to 1000 nM | Cc1cccc(-c2ccc3c(c2)[C@]2(COC(N)=N2)c2cccnc2O3)c1 [compound 596]

IC50 (BACE1 [1]) | IC50 (BACE1 [2]) | SMILES
100 to 1000 nM | 100 to 1000 nM | NC1=N[C@@]2(CO1)c1cc(-c3cncnc3)ccc1Oc1ccc(C(F)(F)F)cc12 [compound 597]
> 5000 nM | 1000 to 5000 nM | NC1=N[C@]2(CO1)c1cc(-c3ccccc3)ccc1Oc1ncccc12 [compound 598]
1000 to 5000 nM | 100 to 1000 nM | NC1=N[C@]2(CO1)c1ccccc1Oc1ccc(-c3c(F)ccnc3F)cc12 [compound 599]
> 5000 nM | > 5000 nM | NC1=N[C@]2(CO1)c1cc(Br)ccc1Oc1ncccc12 [compound 600]
> 5000 nM | > 5000 nM | NC1=N[C@@]2(CO1)c1cc(Br)ccc1Oc1ncccc12 [compound 601]
< 100 nM | < 100 nM | COc1cncc(-c2ccc3c(c2)[C@@]2(COC(N)=N2)c2cc(C#CC(C)(C)OC)cnc2O3)c1 [compound 602]
< 100 nM | < 100 nM | COC(C)(C)C#Cc1cnc2c(c1)[C@]1(COC(N)=N1)c1cc(-c3cccnc3)ccc1O2 [compound 603]
< 100 nM | < 100 nM | COC1CN(c2ccc3c(c2)[C@]2(COC(N)=N2)c2cc(-c4cccnc4)ccc2O3)C1 [compound 604]
< 100 nM | < 100 nM | NC1=N[C@@]2(CO1)c1cc(C#CC3CC3)ccc1Oc1ncc(N3CCOCC3)cc12 [compound 607]
100 to 1000 nM | 100 to 1000 nM | CC(C)(C)COc1ccc2c(c1)[C@]1(COC(N)=N1)c1cc(C(=O)N3CCC3)ccc1O2 [compound 608]
> 5000 nM | > 5000 nM | Cc1ccccc1-c1ccc2c(c1)[C@]1(COC(N)=N1)c1cccnc1O2 [compound 609]
1000 to 5000 nM | 100 to 1000 nM | N#Cc1cccc(-c2ccc3c(c2)[C@]2(COC(N)=N2)c2cccnc2O3)c1 [compound 610]
100 to 1000 nM | < 100 nM | Cn1cc(-c2ccc3c(c2)[C@]2(COC(N)=N2)c2cc(-c4cccnc4)ccc2O3)ccc1=O [compound 611]
100 to 1000 nM | < 100 nM | NC1=N[C@@]2(CO1)c1cc(-c3cccnc3)ccc1Oc1cnc(C(=O)CCCCO)cc12 [compound 612]
100 to 1000 nM | 100 to 1000 nM | COCC(=O)Nc1ccc2c(c1)[C@@]1(COC(N)=N1)c1cc(OC)ccc1O2 [compound 613]
100 to 1000 nM | 100 to 1000 nM | COc1ccc2c(c1)[C@]1(COC(N)=N1)c1cc(NC(=O)C3CCCO3)ccc1O2 (stereo partly drawn) [compound 614]
100 to 1000 nM | 100 to 1000 nM | COc1ccc2c(c1)[C@]1(COC(N)=N1)c1cc(NC(=O)c3ccccn3)ccc1O2 [compound 615]
1000 to 5000 nM | 1000 to 5000 nM | COc1ccc2c(c1)[C@]1(COC(N)=N1)c1cc(NC(=O)c3ccccc3)ccc1O2 [compound 616]
1000 to 5000 nM | 1000 to 5000 nM | COc1ccc2c(c1)[C@]1(COC(N)=N1)c1cc(NC(=O)c3ccc(Cl)nc3)ccc1O2 [compound 617]
1000 to 5000 nM | > 5000 nM | NC1=N[C@]2(CO1)c1cc(-c3cc4ccccc4s3)ccc1Oc1ncccc12 [compound 618]
100 to 1000 nM | 1000 to 5000 nM | NC1=N[C@@]2(CO1)c1ccccc1Oc1ccc(-c3cc(F)cnc3Cl)cc12 [compound 619]

IC50 (BACE1 [1]) | IC50 (BACE1 [2]) | SMILES
> 5000 nM | > 5000 nM | NC1=N[C@]2(CO1)c1ccccc1Oc1ccc(C(=O)NC3CCCCC3)cc12 [compound 621]
100 to 1000 nM | < 100 nM | CC(C)(C)c1nc(-c2ccc3c(c2)[C@]2(COC(N)=N2)c2cc(-c4cccnc4)ccc2O3)cs1 [compound 622]
< 100 nM | < 100 nM | NC1=N[C@@]2(CO1)c1cc(-c3cccnc3)ccc1Oc1ccc(-c3cnoc3)cc12 [compound 623]
1000 to 5000 nM | 100 to 1000 nM | NC1=N[C@@]2(CO1)c1cc(-c3cccnc3)ccc1Oc1ccc(-c3csc(N4CCCC4)n3)cc12 [compound 624]
< 100 nM | < 100 nM | NC1=N[C@@]2(CO1)c1cc(-c3ccccc3)ccc1Oc1ncc(N3CCOCC3)cc12 [compound 626]
> 5000 nM | > 5000 nM | NC1=N[C@]2(CO1)c1ccccc1Oc1ccc(-c3cccc4ncccc34)cc12 [compound 627]
> 5000 nM | > 5000 nM | NC1=N[C@@]2(CO1)c1ccccc1Oc1ccc(-c3cnc4ccccc4c3)cc12 [compound 628]
> 5000 nM | 1000 to 5000 nM | NC1=N[C@]2(CO1)c1ccccc1Oc1ccc(-c3cncc4ccccc34)cc12 [compound 629]
> 5000 nM | 1000 to 5000 nM | NC1=N[C@]2(CO1)c1ccccc1Oc1ccc(-c3cccc4cccnc34)cc12 [compound 630]
< 100 nM | < 100 nM | Cn1cc(-c2ccc3c(c2)[C@]2(COC(N)=N2)c2cc(-c4ccc(F)nc4)ccc2O3)cn1 [compound 631]
100 to 1000 nM | < 100 nM | NC1=N[C@@]2(CO1)c1cc(-c3cccnc3)ccc1Oc1ccc(-c3csc(C4CC4)n3)cc12 [compound 632]
1000 to 5000 nM | 1000 to 5000 nM | COc1ccc2c(c1)[C@]1(COC(N)=N1)c1cc(-c3cnc4ccccc4c3)ccc1O2 [compound 633]
1000 to 5000 nM | 100 to 1000 nM | COc1ccc2c(c1)[C@]1(COC(N)=N1)c1cc(-c3cncc4ccccc34)ccc1O2 [compound 634]
100 to 1000 nM | 100 to 1000 nM | NC1=N[C@]2(CO1)c1cc(-c3cccnc3)ccc1Oc1ncccc12 [compound 635]
100 to 1000 nM | 1000 to 5000 nM | NC1=N[C@]2(CO1)c1cc(-c3cncnc3)ccc1Oc1c(F)cc(C3=CCOCC3)cc12 [compound 637]
1000 to 5000 nM | 100 to 1000 nM | Cn1cc(-c2ccc3c(c2)[C@]2(COC(N)=N2)c2cc(Br)ccc2O3)cn1 [compound 638]
> 5000 nM | > 5000 nM | NC1=N[C@@]2(CO1)c1ccccc1Oc1ccc(C(=O)N3CCCCC3)cc12 [compound 639]
1000 to 5000 nM | 1000 to 5000 nM | NC1=N[C@@]2(CO1)c1ccccc1Oc1ccc(-c3cccnc3)cc12 [compound 640]
1000 to 5000 nM | 100 to 1000 nM | NC1=N[C@@]2(CO1)c1ccccc1Oc1ccc(-c3cccnc3F)cc12 [compound 641]
< 100 nM | < 100 nM | Cn1cc(-c2ccc3c(c2)[C@]2(COC(N)=N2)c2cc(-c4cccnc4F)ccc2O3)cn1 [compound 642]
< 100 nM | < 100 nM | COc1cncc(-c2ccc3c(c2)[C@@]2(COC(N)=N2)c2cc(C#CC(C)(C)C)cnc2O3)c1 [compound 643]
